The source made the active and inactive calls.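 Rule for the calls: active = in confirmatory dose-response testing, peak deubiquitinase inhibition of 30% or more; inactive = the rest.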
Target: Ubiquitin carboxyl-terminal hydrolase 28 (Homo sapiens) (UniProt Q96RU2)
Test: Ubiquitin-specific peptidase 28 DUB inhibitors, biochemical concentration-dependence assay, validation of primary screening hits (AID 1645866)
Conditions: purified USP28, ubiquitin-rhodamine fluorescence, 30 min

Ubiquitin carboxyl-terminal hydrolase 28 (Homo sapiens), sequence (Q96RU2 whole entry, looked up): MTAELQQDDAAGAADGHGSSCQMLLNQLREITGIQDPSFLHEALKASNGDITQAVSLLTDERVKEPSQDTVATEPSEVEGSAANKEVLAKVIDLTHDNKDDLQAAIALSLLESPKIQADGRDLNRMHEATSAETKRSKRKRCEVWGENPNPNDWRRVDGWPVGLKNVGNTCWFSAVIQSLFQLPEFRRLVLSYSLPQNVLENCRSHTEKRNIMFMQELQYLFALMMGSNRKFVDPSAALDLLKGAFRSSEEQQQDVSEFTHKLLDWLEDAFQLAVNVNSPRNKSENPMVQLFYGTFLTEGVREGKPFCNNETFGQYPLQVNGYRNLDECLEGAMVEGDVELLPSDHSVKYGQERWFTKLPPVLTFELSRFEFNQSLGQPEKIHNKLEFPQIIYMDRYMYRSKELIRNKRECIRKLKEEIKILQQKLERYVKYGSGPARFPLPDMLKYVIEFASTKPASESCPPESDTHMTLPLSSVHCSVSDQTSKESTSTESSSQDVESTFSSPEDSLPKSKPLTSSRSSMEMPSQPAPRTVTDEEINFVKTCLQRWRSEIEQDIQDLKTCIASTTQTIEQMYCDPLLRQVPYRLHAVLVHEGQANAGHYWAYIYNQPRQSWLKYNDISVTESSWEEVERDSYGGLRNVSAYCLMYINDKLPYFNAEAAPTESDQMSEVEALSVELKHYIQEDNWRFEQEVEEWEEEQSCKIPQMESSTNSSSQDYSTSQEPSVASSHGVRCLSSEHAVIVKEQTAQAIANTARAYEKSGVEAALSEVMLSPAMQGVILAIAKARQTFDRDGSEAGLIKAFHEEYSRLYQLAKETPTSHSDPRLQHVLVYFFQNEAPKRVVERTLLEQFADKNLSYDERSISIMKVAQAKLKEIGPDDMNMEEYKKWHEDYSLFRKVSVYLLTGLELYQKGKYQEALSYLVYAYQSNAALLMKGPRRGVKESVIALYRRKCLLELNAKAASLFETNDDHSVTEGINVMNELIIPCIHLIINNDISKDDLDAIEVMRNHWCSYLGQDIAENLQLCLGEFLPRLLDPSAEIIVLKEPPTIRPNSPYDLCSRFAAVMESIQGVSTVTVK

SMILES | IC50
CCc1ccc2[nH]c3c(c(=O)c2c1)CN(CC(=O)NCc1ccc2c(c1)OCO2)CC3 | 20 µM
CCOC(=O)c1ccc(NC(=O)c2cnc(N3CCOCC3)nc2)cc1 | > 50 µM (inactive)
COc1cccc(-c2cc(=O)[nH]c(Nc3nc(C)c4ccccc4n3)n2)c1 | 25.9 µM
Cn1nc(-c2nc(-c3ccccc3)no2)c2c1CCN(C(=O)C1CCCC1)C2 | 24.1 µM
Cc1ccc(C(=O)N2CCCC3(C2)Nc2cccnc2NC3=NC2CCCC2)s1 (centres undefined) | > 50 µM (inactive)
O=C(COc1cccc(-n2cnnn2)c1)Nc1ccc2c(c1)OCCO2 | 31.4 µM
Cc1cccc(NC(=O)CSc2ncnc3c2sc2nc(CC(C)C)c4c(c23)CCC4)c1 | 6.42 µM
Cc1cccc(NC(=O)CSc2nnc(-c3n[nH]c4c3CCC4)n2N)c1C | 17.6 µM
COc1ccc(-n2c(=O)c(CCC(=O)O)nc3ccccc32)cc1 | > 50 µM (inactive)
O=C1N(Cc2ccc(F)cc2)CCN1c1ccc(C(F)(F)F)cn1 | 4.67 µM
O=C(CCSc1ccc(Cl)cc1)c1cccs1 | 19.4 µM
CC(=O)c1ccc(NC(=O)c2ccc(N3CCCCS3(=O)=O)cc2Cl)cc1 | 26.6 µM
COc1ccc(C(=O)Nc2n[nH]c(C)c2-c2cccc(C)c2)c(OC)c1 | 10.3 µM
O=C(COc1ccc2ccccc2c1)Nc1cccc2ccccc12 | 22.4 µM
N#Cc1ccc(NC(=O)c2ccc(S(=O)(=O)N3CCCCC3)cc2)cc1 | 27.6 µM
CC(=O)c1cccc(NC(=O)c2ccc(N3CCCCC3)nn2)c1 | 32.4 µM
O=C(Nc1ccccc1Cl)N(Cc1cc2cc3c(cc2[nH]c1=O)OCCO3)C1CCCCC1 | 49.1 µM
CC(C)CCN1C(=O)C2C(C(=O)Nc3ccc(Oc4ccccc4)cc3)C3C=CC2(O3)C1C(=O)NC1CCCCC1 (centres undefined) | 37.5 µM
O=C(Cn1cc(C(=O)C2CC2)c2ccccc21)NCc1ccc2c(c1)OCO2 | 24.9 µM
COc1cccc(C(=O)Nc2ccc(-n3cnnn3)cc2)c1 | 21.7 µM
Oc1sc(C=Nc2cc(Cl)ccc2Cl)c2ccccc12 | 2.98 µM
CCOC(=O)C1C(c2ccc(Br)cc2)C2(C(=O)c3ccccc3C2=O)C2C=Cc3ccccc3N12 (centres undefined) | > 50 µM (inactive)
O=C(Nc1nnc2n1CCCS2)c1cccc(Cl)c1 | 1.19 µM
CC1(C)C[C@@H](O)[C@]2(C)CC[C@]3(C)C(=CCC4[C@@]5(C)CC[C@H](O)[C@](C)(CO)[C@@H]5CC[C@]43C)[C@@H]2C1 (some centres undefined) | > 50 µM (inactive)
O=[N+]([O-])c1cccc(CSc2nnc(/C=C/c3ccccc3)o2)c1 | > 50 µM (inactive)
COc1cc(OC)cc(-c2nc(-c3cn(-c4cccc(F)c4)nn3)no2)c1 | 0.483 µM

SMILES | IC50
CCn1c(Cn2cccn2)nc2cc(NC(=O)c3ccc(F)cc3)ccc21 | 15.5 µM
COc1c(O)cc(CC(=O)O)c(C(C)=O)c1O | 10.5 µM
Cc1cccc(C(=O)Nc2cccc(SC(C(=O)Nc3ccc(O)c(C(=O)O)c3)c3ccccc3)c2)c1 (centres undefined) | 3.72 µM
CSc1nc(Cc2ccc(Cl)cc2)nc2ccccc12 | 14 µM
Cc1ccc(C(=O)Nc2ccc3c(c2)C(=O)N(C)c2ccccc2O3)cc1C | 2.75 µM
O=C1CC(c2cc3c(cc2Br)OCO3)c2cc3c(cc2N1)OCCO3 (centres undefined) | 14.9 µM
CC1CCN(C(=O)c2cn(-c3cc(N4CCC(C)CC4)ncn3)cn2)CC1 | 15.1 µM
CCC(=O)Nc1ccc(-c2nc(Cn3cc(C)cn3)c(C)o2)cc1 | 3.7 µM
O=C(NCc1ccc2c(c1)OCO2)c1nn(C23CC4CC(CC(C4)C2)C3)cc1[N+](=O)[O-] | > 50 µM (inactive)
COc1ccc(OC)c(NC(=O)C2=C(C)Nc3ncnn3C2c2ccccc2OCc2ccc(C)cc2)c1 (centres undefined) | 19.9 µM
COc1cc2cc3c(c(O)c2c(O)c1-c1c(OC)cc2cc4c(c(O)c2c1O)C(=O)OC1CC(C)OC41)C(=O)OC1CC(C)OC31 (centres undefined) | > 50 µM (inactive)
COc1ccc(NC(=O)c2sc(N3CCOCC3)nc2-c2ccccc2)c(OC)c1 | 17 µM
NC(=O)C1(N2CCCCC2)CCN(C(=O)c2[nH]nc3c2CCc2ccccc2-3)CC1 | > 50 µM (inactive)
N#Cc1cc(C(=O)c2ccc(Cl)cc2)c[nH]1 | 41.9 µM
O=C(CCc1ccc(S(=O)(=O)N2CCOCC2)cc1)Nc1ccc2c(c1)OCCO2 | 13.1 µM
CCC/C=C\C#CC/C=C\CCCCCCCC(=O)O | 1.09 µM
Cc1nc(-c2cccc(NC(=O)C3CCN(c4ccccc4)C3=O)c2)no1 (centres undefined) | 27.3 µM
Cc1ccc(C(=O)c2cn(CC(=O)Nc3ccccc3)c3ccc(C)cc3c2=O)cc1 | 6 µM
CC(C)Oc1ccc(C(=O)Nc2cccc(S(=O)(=O)N3CCCC3)c2)cc1 | 10.7 µM
COCCNC(=O)c1ccn(-c2ccc3ccc(-c4ccncc4)cn23)n1 | > 50 µM (inactive)
O=C(Nc1cccc(S(=O)(=O)N2CCCC2)c1)c1ccc2c(=O)n3c(nc2c1)CCCCC3 | 21.2 µM
Cc1nn(-c2nc3ccccc3[nH]2)c2c1C(c1cccs1)CC(=O)N2 (centres undefined) | > 50 µM (inactive)
Cc1ccc(C)c(Nc2cc(C)nc3nc(-c4ccco4)nn23)c1 | > 50 µM (inactive)
N#Cc1ccc(COC(=O)c2ccc3ccccc3n2)cc1 | 3.62 µM
CC(=O)c1ccc(NC(=O)C2CCN(c3cncnc3N3CCCC3)CC2)cc1 | 0.674 µM
Cc1cc(NC(=O)c2nnn(-c3ccccc3Cl)c2C)no1 | 1.49 µM

SMILES | IC50
COc1cccc(N2CCN(C(=O)Nc3ccc4c(c3)NC(=O)CO4)CC2)c1 | 19.4 µM
CC(C)Cc1nc2sc3c(NCc4ccccc4)ncnc3c2c2c1COC(C)(C)C2 | 6.15 µM
COc1cc(Cl)ccc1C(=O)Nc1cccc(-n2cnnn2)c1C | 11.2 µM
N#Cc1cccc(NC(=O)Nc2cccn(Cc3ccccc3F)c2=O)c1 | 4.02 µM
CN(C)S(=O)(=O)c1ccc(C(=O)Nc2c(C#N)oc3ccccc23)cc1 | > 50 µM (inactive)
O=C(NC1CCN(c2nc(-c3cccnc3)nc3ccccc23)CC1)c1cccnc1 | 15.1 µM
CCC(=O)Nc1ccc2c(c1)nc(CSc1nccc(C)n1)n2CC | 0.365 µM
Cc1nn(-c2ccc(F)cc2)cc1-c1noc(C(=O)NCc2ccccn2)n1 | 22.8 µM
O=C(Cn1cccc1-c1nc(-c2ccccc2)cs1)N1CCOCC1 | 18.3 µM
COc1ccc(-c2cc3c(=O)n(CC(=O)Nc4ccccc4F)ccn3n2)cc1OC | 33 µM
COC(=O)c1ccc2c(=O)n(CCCCCC(=O)NCc3cccc(Cl)c3)c(=O)[nH]c2c1 | 2.05 µM
COc1ccc(/C=C/C(=O)Nc2c3c(nc4c2CCC4)CCCC3)cc1 | 12.1 µM
O=C(Nc1cc(F)c2nc(N3CCCC3)ccc2c1)c1ccco1 | > 50 µM (inactive)
Cn1ccnc1CN1C[C@H]2CCN(c3ncccn3)C[C@H]2C1 | > 50 µM (inactive)
Cc1ccc2oc(=O)c(S(=O)(=O)N3CCCCC3)cc2c1 | 23.2 µM
O=C1C/C(=C\c2cccc(Cl)c2)Cc2ccccc21 | 13 µM
Cc1ccc2c(c1)c(=O)c(C(=O)c1ccc(F)cc1)cn2CC(=O)Nc1ccc2c(c1)OCCO2 | 35.9 µM
O=C1Nc2c(Cl)cc(Cl)cc2C1(O)c1sc(NC2CCCCC2)nc1-c1ccccc1 (centres undefined) | 24.6 µM
CCN(CC)c1cc(C)c2cc(NC(=O)c3ccncc3)ccc2n1 | 5.88 µM
Cc1c(OCC(=O)Nc2nc3ccccc3[nH]2)ccc2c3c(c(=O)oc12)CCC3 | 0.541 µM
O=C(Cc1noc2ccccc12)NCC(=O)Nc1ccc(Cl)cc1 | 18 µM
CN(C)C(=O)CSc1nnc(-c2cccc(Cl)c2)n1-c1ccc(Cl)c(C(F)(F)F)c1 | 5.78 µM
COc1ccc(NC(=O)c2nnn(-c3ccccc3F)c2C)cc1OC | 2.61 µM
O=C(/C=C/c1ccc(F)cc1)Nc1ccc2c(c1)OCCO2 | 2.47 µM
CC(C)(C)c1ccc(Cn2nnc3c(=O)[nH]c(C4CCN(S(=O)(=O)c5ccc(S(=O)(=O)NC6CC6)cc5)CC4)nc32)cc1 | 30.9 µM
CCOC(=O)c1nc(Nc2ccc(OC)c(Cl)c2)c2ccccc2n1 | 26.5 µM

SMILES | IC50
O=C(Cc1ccccc1F)Nc1nc(-c2ccco2)c(-c2ccco2)s1 | > 50 µM (inactive)
COc1ccccc1-c1ccc(CN2[C@@H](c3ccccc3)C[C@@H]3NC(=O)CCC[C@H]32)cc1 | > 50 µM (inactive)
O=C1N(Cc2ccc(F)cc2)CCN1c1ccc2c(c1)CCC2 | 40.8 µM
O=C(c1ccco1)N1CCC2(CC1)CC1(CO2)Nc2ccccc2-n2cccc21 (centres undefined) | 34.4 µM
Cc1nn(Cc2ccccc2)c(C)c1C(=O)NC1CCCc2ccccc21 (centres undefined) | 5.14 µM
CN1c2ccccc2CN(CC(N)=O)CC1Cc1ccccc1 (centres undefined) | > 50 µM (inactive)
O=C(Nc1nc2c(s1)COCC2)c1cc(-c2ccco2)[nH]n1 | > 50 µM (inactive)
Cc1nc2sc(C(=O)Nc3ccccc3Br)c(N)c2c(C)c1C | 2.01 µM
COc1ccc(C(=O)CSc2nnc(-c3cccnc3)n2-c2ccccc2)cc1 | > 50 µM (inactive)
CN(Cc1ccccc1)S(=O)(=O)c1ccc(S(=O)(=O)N2CCN(C(=O)c3cccnc3)CC2)cc1 | 18.8 µM
O=C(Cn1c(=O)n(CC(=O)NC2CCCC2)c(=O)c2ccccc21)Nc1cc(Cl)ccc1Cl | 4.52 µM
O=C(NCCCc1nc2ccccc2n1Cc1c(Cl)cccc1Cl)c1ccco1 | 25.3 µM
O=C(Cn1nc2c3c4c(sc3ncn2c1=O)CCCCC4)Nc1ccc(Cl)cc1F | 1.83 µM
CSc1cccc(NC(=O)CNC(=O)c2cc3ccccc3o2)c1 | 46.2 µM
CC(=O)c1cccc(NC(=O)c2ccc3[nH]c4c(c3c2)CC(C)CC4)c1 (centres undefined) | > 50 µM (inactive)
COc1cccc(/C=C/C(=O)Nc2ccc(C)c(Cl)c2)c1 | 5.79 µM
O=C(Nc1cccc(Cl)c1)N1CCC(c2cc(-c3ccco3)n[nH]2)CC1 | 4.68 µM
COc1cc(NC(=O)c2cc(CN3CCOCC3)on2)cc(OC)c1 | 20.3 µM
O=C(C1CCCN(S(=O)(=O)N2CCCCCC2)C1)N1CCN(c2ccccc2)CC1 (centres undefined) | > 50 µM (inactive)
CC(C)c1cc2c(c(O)c1O)[C@@]13CCCC(C)(C)[C@@H]1C[C@@H]2OC3=O | 23.9 µM
COc1cccc2sc(N3CCN(c4nc5ccccc5s4)CC3)nc12 | > 50 µM (inactive)
Cc1c(CC(=O)N2CCN(c3ncccn3)CC2)c(=O)oc2cc(O)ccc12 | 23 µM
Cc1cc(N2CCN(c3ncccn3)CC2)nc2ccc(NC(=O)/C=C/c3ccccc3Cl)cc12 | 7.79 µM
COc1cccc(CNC(=O)c2ccc3c(c2)NC(=O)C2CCCN32)c1OC (centres undefined) | > 50 µM (inactive)
COc1c2c(cc3cc(O)c4c(=O)cc(C)oc4c13)CCC2=O | 28.8 µM
CC(C)c1nc2sc3c(N(CCO)CCO)ncnc3c2c2c1COC(C)(C)C2 | > 50 µM (inactive)

From PubChem BioAssay AID1645866 (Buhrlage Lab, Dana-Farber Cancer Institute and Novartis …, 2021)
